The record followed here is US20140148504A1, “NOVEL USE OF FLAVONE-BASED COMPOUND” (Industry-Academic Cooperation Foundation, Younsei University, priority 2011, published 2014).

Assay [1] concerns hairless mice (Hos: HR-1). Briefly: UV-induced Trans-Epidermal Water Loss (TEWL), application onto the skin (Tewameter). It counts as in vivo. Conditions: UV-exposed hairless mice, skin application for 8 weeks; back skin. The procedure: (§1) Forty eight (48) 6-week-old female hairless mice (Hos: HR-1) were accustomed for a week and randomly divided into six (6) groups, eight (8) mice per each group. The hairless mice were exposed to UV for 8 weeks. UV irradiation was carried out 3 times a week, while the amount of UV irradiation was increased from 1 MED (1 MED=50 mJ/cm^2) to 4 MED which was then kept until the end of the test. Test groups were divided into a total of six groups, i.e. Non UV-treated Group, UV-treated Group, UV+5,7-dimethoxyflavone-treated Group, UV+5,7,4′-trimethoxyflavone-treated Group, UV+3,5,7,3′,4′-pentamethoxyflavone-treated Group, and UV+ethanol extract of Kaempferia parviflora-treated Group. Each sample was dissolved in a mixture solvent of ethanol and polyethylene glycol (7:3, v/v), and 50 μL of each sample was applied onto the back of the mice every day for 8 weeks. For the Non UV-treated group and the UV-treated group, 50 μL of a mixture of ethanol and polyethylene glycol (7:3, v/v) was applied. In order to test the preventative effect of wrinkle formation, skin replicas were taken using silicone polymer (SILFLO Impression Material, Flexico, England). The image files of the skin replicas were subjected to wrinkle evaluation using the computer imaging analysis system, i.e. Skin Visiometer SV 600 software (Courage+Khazaha Electronic, Kln, Germany). Rt, Rm, Rz and Ra values (Rt: the distance from the highest and lowest portions on the skin surface, Rm: the maximum Rt value among five (5) measurements, Rz: the mean Rt value of five measurements, Ra: the arithmetic mean value of surface roughness) were determined The results are shown in FIGS. 12 and 13A to 13D.
By using Tewameter (TM 300, Courage+Khazaha Electronic, Kln, Germany), Trans-Epidermal Water Loss (TEWL) was measured on the back of the mice in Example 7-1.

Assay [2] deals with Collagenase-1 (Matrix Metalloproteinase-1, MMP-1). As to the kind of experiment: Inhibition of UV-induced Collagenase-1 (MMP-1) production in human fibroblasts (ELISA kit). It counts as cell-based. The settings on record: 15 mJ UV, 20 μM flavones, 20 μg/ml ethanol extract, FIG. 11. The procedure: (§2) Firstly, human fibroblasts were placed in a 96-well microtiter plate (5,000 cells/well) containing DMEM (Dulbecco's Modified Eagle's Media) which comprises 2.5% bovine fetal serum, and cultured until they reached a growth rate of around 90%. Then, the cells were treated for 24 hours in serum-free DMEM containing 20 μM of 5,7-dimethoxyflavone, 20 μM 5,7,4′-trimethoxyflavone, 20 μM 3,5,7,3′,4′-pentamethoxyflavone and 20 μg/ml of the ethanol extract of Kaempferia parviflora of Examples 1-4, respectively, and followed by the exposure to 15 mJ of UV. Subsequently, the cells were additionally treated with serum-free DMEM containing 20 μM of 5,7-dimethoxyflavone, 20 μM 5,7,4′-trimethoxyflavone, 20 μM 3,5,7,3′,4′-pentamethoxyflavone and 20 μg/ml of the ethanol extract of Kaempferia parviflora of Examples 1-4, respectively. After 24 hours, the cell culture was collected and centrifuged to obtain the supernatant.
For the resulting supernatant, the degree of Collagenase-1 (MMP-1) production was observed by Collagenase-1 Measurement Kit (QIA55, Merch & Co., USA). Firstly, the above obtained cell culture was placed in a 96-well plate evenly coated with primary antibodies against Collagenase-1 (MMP-1), followed by antigen-antibody reaction for 2 hours at room temperature. After 2 hours, primary antibodies against collagen with fluorescence were added to the said 96-well plate for 1 hour. After 1 hour, a substance inducing color formation was added and left for 30 minutes at room temperature. Then, a termination buffer was added to discontinue the color formation, resulting in the formation of yellow color. The degree of yellow color varied depending on the degree of the said reaction process. Absorbance of the 96-well plate showing yellow color was measured with an absorptiometer at 450 nm.
(In an ELISA, binding on a coated surface is turned into a signal by an enzyme label.)

For assay [3], the system named is hairless mice (Hos: HR-1). As to the kind of experiment: In vivo improvement of UV-induced wrinkles, oral administration (skin replicas, Skin Visiometer). Conditions: UV-exposed hairless mice, oral daily for 8 weeks, flavones 50 mg/kg/day, extract 200 mg/kg/day; for wrinkle formation (skin replicas) compared with UV-treated Group: FIG. 14; for Rt, Rm, Rz and Ra values (degree of wrinkle formation): p<0.05, FIGS. 15A-15D. The procedure: (§3) To the hairless mice exposed to UV in Example 7-1,5,7-dimethoxyflavone (50 mg/kg/day), 5,7,4′-trimethoxyflavone (50 mg/kg/day), 3,5,7,3′,4′-pentamethoxyflavone (50 mg/kg/day) and the ethanol extract of Kaempferia parviflora (200 mg/kg/day) dissolved in 0.5% carboxymethyl cellulose solution containing 5% Tween 80 were orally administered daily for 8 weeks. For the control groups (Non UV-treated Group and UV-treated Group), 0.5% carboxymethyl cellulose solution was administered. In order to test the preventative effect of wrinkle formation, skin replicas were taken using silicone polymer (SILFLO Impression Material, Flexico, England). The image files of the skin replicas were subjected to wrinkle evaluation using the computer imaging analysis system, i.e. Skin Visiometer SV 600 software (Courage+Khazaha Electronic, Kln, Germany).

Assay [4] relates to hairless mice (Hos: HR-1). As to the kind of experiment: In vivo improvement of UV-induced wrinkles, application onto the skin (skin replicas, Skin Visiometer). Conditions: UV-exposed hairless mice; for wrinkle formation (skin replicas) in comparison with UV-treated Group: 50 μL applied onto the back every day for 8 weeks, FIG. 12; for Rt, Rm, Rz and Ra values (degree of wrinkle formation): skin application for 8 weeks, p<0.05, FIGS. 13A-13D. The procedure:
as §1

Assay [5] relates to Procollagen Type-I C Peptide (PIP). As to the kind of experiment: Enhancing effect on collagen production (Procollagen Type-I C Peptide ELISA) in UV-exposed human fibroblasts. It is filed as cell-based. Conditions: 15 mJ UV, 20 μM flavones, 20 μg/ml ethanol extract, PIP in supernatant. How it is done: as §2, with “supernatant. For the obtained supernatant, the production of Procollagen Type-I C Peptide (PIP), an indicator of collagen production, was quantitatively measured by ELISA kit (MK101, Takara Bio Ink., Japan) so as to observe their effect on collagen production.” for “supernatant.”
Firstly, antibody-PIP conjugates tagged to peroxidase were added to a 96-well plate evenly coated with mouse monoclonal antibodies against Procollagen. Then, the above obtained cell culture was added and reacted for 3 hours in an incubator, followed by the addition of substrate solution for color formation. Upon staying for 15 minutes at room temperature, the reaction was ended after the addition of reaction termination solution. Absorbance was measured with an absorptiometer at 450 nm.

Assay [6] relates to hairless mice (Hos: HR-1). Briefly: Skin elasticity, oral administration (Cutometer). It is filed as in vivo. Conditions: UV-exposed hairless mice, oral daily for 8 weeks; flavones 50 mg/kg/day, extract 200 mg/kg/day; Non UV-treated Group = 100. The procedure:
as §3
By using Cutometer (MPA 580, Courage+Khazaha Electronic, Germany), skin elasticity was measured on the back of the mice in Example 7-2 and compared with Non UV-treated Group.

The subject of assay [7] is hairless mice (Hos: HR-1). As to the kind of experiment: UV-induced Trans-Epidermal Water Loss (TEWL), oral administration (Tewameter). It counts as in vivo. Conditions: UV-exposed hairless mice, oral daily for 8 weeks; flavones 50 mg/kg/day, extract 200 mg/kg/day. How it is done:
as §3
By using Tewameter (TM 300, Courage+Khazaha Electronic, Kln, Germany), Trans-Epidermal Water Loss (TEWL) was measured on the back of the mice in Example 7-2.

The subject of assay [8] is hairless mice (Hos: HR-1). As to the kind of experiment: Skin elasticity, application onto the skin (Cutometer). It counts as in vivo. The settings on record: UV-exposed hairless mice, skin application for 8 weeks; Non UV-treated Group = 100. How it is done: as §1
By using Cutometer (MPA 580, Courage+Khazaha Electronic, Germany), skin elasticity was measured on the back of the mice in the above Example 7-1 and compared with Non UV-treated Group.

As to `COc1cc(OC)c2c(=O)c(OC)c(-c3ccc(OC)c(OC)c3)oc2c1` [3,5,7,3′,4′-pentamethoxyflavone], the TEWL in assay [1] is 22.0 g/m^2/hr; in assay [7], 20.3 g/m^2/hr. The “inhibition of Collagenase-1 (MMP-1) activity induced by UV light” value (shortened to “inhibition”) in assay [2] is “excellent for inhibiting Collagenase-1 (MMP-1) activity”. For the same compound, the “wrinkle formation (skin replicas) compared with UV-treated Group” value in assay [3] is reported as “remarkable decrease in wrinkle formation”. Besides, the “Rt, Rm, Rz and Ra values (degree of wrinkle formation)” value (“Rt, Rm, Rz and Ra values” below) in assay [3] and in assay [4] was “significantly reduced” throughout. Moreover, the “wrinkle formation (skin replicas) in comparison with UV-treated Group” value in assay [4] was “remarkable decrease in wrinkle formation”. Moreover, in assay [5], the “Content of Collagen” value is listed as 226.5 ng/10^5 cell. Further, the “Degree of skin elasticity” value in assay [6] is listed as 81.7%; in assay [8], 72.3%.
Turning to `COc1ccc(-c2cc(=O)c3c(OC)cc(OC)cc3o2)cc1` [5,7,4′-trimethoxyflavone], the TEWL in assay [1] is given as 24.8 g/m^2/hr; in assay [7] it was 19.6 g/m^2/hr. In addition, the “inhibition” value in assay [2] was “excellent for inhibiting Collagenase-1 (MMP-1) activity”. In assay [3], the “wrinkle formation (skin replicas) compared with UV-treated Group” value is “remarkable decrease in wrinkle formation”. The “Rt, Rm, Rz and Ra values” value in assay [3] and in assay [4] was “significantly reduced” throughout. Besides, in assay [4], the “wrinkle formation (skin replicas) in comparison with UV-treated Group” value was “remarkable decrease in wrinkle formation”. For the same compound, the “Content of Collagen” value in assay [5] was 230.0 ng/10^5 cell. Moreover, the entries for the “Degree of skin elasticity” value in assay [6] and in assay [8] were 85.6% and 76.9%, respectively.
Turning to `COc1cc(OC)c2c(=O)cc(-c3ccccc3)oc2c1` [5,7-dimethoxyflavone], the TEWL in assay [1] is 19.4 g/m^2/hr; in assay [7] it was 16.4 g/m^2/hr. For the same compound, the “inhibition” value in assay [2] was “excellent for inhibiting Collagenase-1 (MMP-1) activity”. Also, in assay [3], the “wrinkle formation (skin replicas) compared with UV-treated Group” value is on record as “remarkable decrease in wrinkle formation”. In addition, the “Rt, Rm, Rz and Ra values” value in assay [3] and in assay [4] was “significantly reduced” each time. In assay [4], the “wrinkle formation (skin replicas) in comparison with UV-treated Group” value is reported as “remarkable decrease in wrinkle formation”. Further, in assay [5], the “Content of Collagen” value is on record as 236.7 ng/10^5 cell. Besides, the “Degree of skin elasticity” value is 77.3% in assay [6] and 83.5% in assay [8].
